Results published in US20130241815A1, “INK CONTAINING ANTHRAQUINONE BASED DYE, DYE USED IN THE INK, AND DISPLAY” (MITSUBISHI CHEMICAL CORPORATION, priority 2010, published 2013).

Legend:
Format in all cases: physicochemical
[1] = Preparation of ink and evaluation of solubility in low polar solvents (saturated solution, absorption maximum, εC); conditions: for Solubility: saturated solution, room temperature
Protocol: Each of Illustrative Compounds 1 to 4 and Comparative Compounds 1, 2 and 4 was dissolved in each of the solvents of n-decane, tetradecane, ISOPAR M, and ISOPAR G, thereby preparing an ink. On that occasion, the solubility of each of the compounds in each of the solvents was measured in the following manner.
Each of the compounds (dyes) was added to each of the solvents until a dissolution residue was generated, and the contents were ultrasonically treated at a water temperature of 30° C. for 30 minutes. After standing at room temperature for 12 hours, the resultant was subjected to centrifugal filtration with a 0.1 μm filter by using an ultrasmall-sized centrifuge (centrifugal force: 5,200×g). Each of the obtained saturated solutions was diluted with an appropriate concentration, a solubility of each of the dyes was calculated from a relation with a previously measured absorption coefficient, and a product ∈C (cm^−1) of a molar absorption coefficient ∈ (L mole^−1 cm^−1) at the absorption maximum wavelength and a concentration C (mole L^−1) of the saturated solution was determined.

[2] = as above; conditions: for Absorption maximum wavelength: Decalin solution; for Solubility: Decalin, saturated solution, room temperature
[3] = Light resistance test (residual rate of dye after 2 h irradiation, 400 W high pressure mercury vapor lamp); conditions: 1 mg dye in 200 mL, 10 to 30° C.
Protocol: The light resistance of each of the compounds (dyes) was measured in the following manner.
1 mg of each of the compounds (dyes) was dissolved in 200 mL of each of the low polar solvents within a container, thereby preparing an ink. This ink was irradiated with light for 2 hours by using a photoreactor UVL-400HA (400 W high pressure mercury vapor lamp), manufactured by Riko Kagaku Sangyo K.K. During that interval, the container was cooled with a coolant, thereby keeping an internal temperature at from 10 to 30° C. A residual rate of the dye was determined by calculation according to the following expression, thereby evaluating the light resistance.
Residual rate=(Absorbance at the maximum absorption wavelength after irradiation)/(Absorbance at the maximum absorption wavelength before irradiation)

Compound | εC ([1]; Decalin solution) [cm⁻¹] | Absorption maximum wavelength ([1]; ISOPAR G solution) | εC ([1]; ISOPAR G solution) | Solubility ([1]; ISOPAR G) | Absorption maximum wavelength ([1]; ISOPAR M solution) | εC ([1]; ISOPAR M solution) | Solubility ([1]; ISOPAR M) | Absorption maximum wavelength ([1]; Tetradecane solution) | εC ([1]; Tetradecane solution) | Solubility ([1]; Tetradecane) | Absorption maximum wavelength ([1]; n-Decane solution) | εC (molar absorption coefficient at absorption maximum x concentration of saturated solution) ([1]; n-Decane solution) | Solubility ([1]; n-Decane) | Absorption maximum wavelength [2] [nm] | Solubility [2] [% by mass] | Residual rate after light resistance test ([3]; n-Decane) [%] | Residual rate after light resistance test ([3]; ISOPAR G) [%] | Residual rate after light resistance test ([3]; ISOPAR M) [%] | Residual rate after light resistance test ([3]; Tetradecane) [%]
CNc1ccc(Nc2ccc(C)cc2)c2c1C(=O)c1ccccc1C2=O [Comparative Compound 1, C.I. Solvent Blue 11, reference compound] | 26 | 594 nm | 7 cm⁻¹ | 0.02 % by mass | 594 nm | 7 cm⁻¹ | 0.02 % by mass | 595 nm | 12 cm⁻¹ | 0.04 % by mass | Unmeasurable | Low | Low | 636 | 0.07 |  |  |  | 
CC(C)CNc1ccc(Nc2ccccc2)c2c1C(=O)c1ccccc1C2=O [Comparative Compound 2, reference compound] |  |  |  |  |  |  |  |  |  |  | 614 nm | 200 cm⁻¹ | 0.7 % by mass |  |  |  |  |  | 
CCCCN(CCCC)c1ccc(N=Nc2nc(C#N)c(C#N)n2CC#N)c(NC(C)=O)c1 [Comparative Compound 3, reference compound] |  |  |  |  |  |  |  |  |  |  |  |  |  |  |  | 45 |  |  | 
C=CCn1c(N=Nc2ccc(N(CCC)CCC)cc2NC(C)=O)nc(C#N)c1C#N [Comparative Compound 4, reference compound] | 7 | Unmeasurable | Low | Low | Unmeasurable | Low | Low | Unmeasurable | Low | Low | Unmeasurable | Low | Low | 520 | 0.01 |  |  |  | 
CCCCC(CC)CNc1ccc(NCC(CC)CCCC)c2c1C(=O)c1ccccc1C2=O (stereo not drawn) [Illustrative Compound 1] | 3400 | 649 nm | 1900 cm⁻¹ | 7.3 % by mass | 650 nm | 1200 cm⁻¹ | 4.2 % by mass | 651 nm | 1600 cm⁻¹ | 5.7 % by mass | 650 nm | 2000 cm⁻¹ | 6.6 % by mass | 645 | 9.98 |  |  |  | 
CCCCC(CC)CNc1ccc(NCC(CC)CCCC)c2c1C(=O)c1ccc(C(=O)OCC)cc1C2=O (stereo not drawn) [Illustrative Compound 2] |  |  |  |  |  |  |  |  |  |  | 668 nm | 1000 cm⁻¹ | 4.7 % by mass |  |  |  |  |  | 
CCCCC(CC)CNc1ccc(NCC(CC)CCCC)c2c1C(=O)c1ccc(C(=O)OCC(C)C)cc1C2=O (stereo not drawn) [Illustrative Compound 3] | 3100 | 667 nm | 2700 cm⁻¹ | 10.8 % by mass | 668 nm | 1400 cm⁻¹ | 5.1 % by mass | 668 nm | 1200 cm⁻¹ | 4.7 % by mass | 668 nm | 1900 cm⁻¹ | 7.5 % by mass | 662 | 10.0 | 78 | 88 | 77 | 94
CCCCC(CC)CNc1ccc(NCC(CC)CCCC)c2c1C(=O)c1ccc(C(=O)OCCC)cc1C2=O (stereo not drawn) [Illustrative Compound 4] |  | 666 nm | 1400 cm⁻¹ | 5.5 % by mass | 667 nm | 1200 cm⁻¹ | 4.5 % by mass | 668 nm | 1300 cm⁻¹ | 4.9 % by mass | 668 nm | 2400 cm⁻¹ | 9.5 % by mass |  |  | 97 | 95 | 99 | 93
